Patent US6723712B2, “Antiviral agent for use in treatment of cancer” (Institut Gustave Roussy, priority 1999, dated 2004)
Entries after “also recorded” stand apart in the source; their conditions may differ.

How the values were obtained:
[1] = tested on: cervical carcinoma xenografts; conditions: cited from earlier work
p53 [2] = assay: Immunoblot densitometry of p53 in HEP2 cells; assay type: cell-based, human; conditions: HEP2, Cidofovir 10 μg/ml, scored 1 without Cidofovir
Experimental: (§1) a2b2 HEP2 (a) and HTB33 (b) cells were cultured in the presence or absence of Cidofovir (10 μg/ml) for 3 and 6 days, and cells were collected in exponential phase, lysed and total protein were immunoblotted with the Ab-1 anti-E7, C1P5 […], and DO7 anti-p53. The blots were stripped and re-probed with a monoclonal β-actin antibody.
(§2) To prepare total proteins, cells lysates were extracted with lysis buffer 50 mM tris, pH 8, 120 mM NaCl, 0,1% SDS, and 0,5% NP-40. The protein concentration in the soluble fraction was determined by using a BioRad protein assay reagent. The viral oncoprotein LMP1 was detected by immunoblotting with a monoclonal anti-LMP1 antibody (clone CS1,CS2,CS3 & CS4 cocktail, RDI). The following antibodies were used: anti-Bcl2 (clone 100 Santa Cruz Biotechnology), anti-Bax (clone B-9, Santa Cruz, anti-E6 (clone CIP5, abcam), anti-E7 (clone Ab-1, oncogene), anti-p53 (clone DO7, Dako). Anti β-actin (clone AC-40, Sigma) was used to control protein loading. Autoradiograms of the Western blot were scanned with the Gil doc 1000 image scanner (Bio-rad, Hercules, Calif.) and densitometric analysis of the bands was performed using the molecular analyst software program (Bio-rad, Hercules, Calif.).

human cancer cells = assay: Combination with chemotherapeutic drugs, tumor cell growth; assay type: cell-based; conditions: in vitro
Experimental: Similar experiments combining a nucleoside analogue with cytotoxic agents other than irradiation were performed (chemotherapeutic drugs, cytokines). The example presented herewith relates to the combination of cidofovir with chemotherapeutic drugs which was evaluated in vitro and in vivo in various virus-associated and non virus-associated human cancers.

EBV and HPV cancer cells = assay: Radiation-induced DNA repair by Fluorescence In Situ Hybridization (FISH); assay type: cell-based, human; conditions: FISH (data not shown)
Excerpt: Cidofovir is a potent inhibitor of the replication of EBV and HPV in cell culture. In addition, the incorporation into the cellular DNA of the infected cell may disrupt the genomic integrity and enhance susceptibility to apoptosis or necrosis.

[3] = tested on: non-virally induced tumors; assay: Tumor growth of non-virally induced human xenografts in nude mice; assay type: in vivo; conditions: cidofovir intra-tumor 60 mg/kg daily 5 days + irradiation 7 Gy on day 3 and 5
Experimental: (§3) In vivo data are reported as the percentage of original (day 0) tumor volume and plotted as fractional tumor volume±S.E. Statistical significance was determined by Kruskal/Wallis and Mann-Withney U tests.
(§4) Female Swiss nu/nu mice were housed throughout experiments in sterile isolators and fed ad libitum with irradiated food (UAR, Villemoisson/Orge, France) and filtered water. Experiments were performed according to the regulation n°86/609/CEE of the European Community. Cell lines were established in vivo in Swiss athymic mice by subcutaneous injection in the right flank of 5×10^6 cells per animal and subsequently maintained in vivo by sequential passages in animals aged 6 to 8 weeks. Nude mice bearing 500-1000 mm3 tumors were used for in vivo experiments. Two types of control were used including both injection of PBS (intra-tumor and intravenous (IV)), irradiation alone, or chemotherapy alone.
Irradiation of cells was performed using a ^137Cs γ-rays source at a dose rate of 1.45 Gy.min^−1. […] Quantification of radiosensitivity was obtained by the surviving fraction at 2 Gy (SF2). Cell survival was also assessed by using proliferation tests (incorporation of tritiated thymidine and MTT). […]
The example presented herewith also relates to the combination of cidofovir with irradiation which was evaluated in vivo in various human viral-associated and also in non viral associated human cancers. […]

RAJI cells = assay: Apoptosis assay (FACS, sub-G1 peak) in RAJI cells; assay type: cell-based, human; conditions: Cidofovir 10 μg/ml combined with irradiation (3 and 6 Gy)
Experimental: (§5) a, RAJI cells were cultured in the presence of Cidofovir (5 and 10 μg/ml) and irrediated […] with 3 Gy and then assayed for apoptosis by FACS analysis. C15 tumors were injected intra-tumorally for 5 days with Cidofovir ([…]) and received 7 Gy on day 3 and 5. Animals were sacrified on day 7 and tumors were dissected and prepared for FACS analysis of propidium-iodide nuclei staining as described above.
(§6) The cell cycle distribution was estimated by staining ethanol-fixed cells with propidium iodide and monitoring by FACScan flow cytometer (Becton Dickinson) using cellQuest software. Briefly, 1×10^6 cells were cultured without or with 5 and 10 μg/ml of Cidofovir, 24 hours later cells were irradiated with 3 and 6 Gy and collected 12 and 24 hours after irradiation. The percentage of apoptotic cells was determined by sub-G1 peak.

[4] = tested on: Ramos, HTB31, and SCC97 cells; assay: Clonogenic survival and proliferation test with irradiation, non virus-containing cells; assay type: cell-based, human; conditions: cidofovir 1 to 10 μg/ml combined with irradiation, non virus-related cells
Experimental: (§7) Irradiation of cells was performed using a ^137Cs γ-rays source at a dose rate of 1.45 Gy.min^−1. Briefly survival curves were obtained by irradiating cells (0 to 6 Gy). The linear-quadratic model was used for fitting survival curves. Quantification of radiosensitivity was obtained by the surviving fraction at 2 Gy (SF2). Cell survival was also assessed by using proliferation tests (incorporation of tritiated thymidine and MTT). Irradiation of animals was performed using a 200 kv apparatus.
(§8) It was studied in EBV+ human carcinoma C15 cells, EBV+ lymphoma Raji cells, 2 HPV+ carcinoma HTB33 and HEP2 cells. The effect of the combination was also studied in 3 human cell lines lacking the viral infection namely Ramos (lymphoma) HTB31 and SCC97 (carcinoma) cells.
(§9) For each cell line, several concentrations of cidofovir were used in vitro in combination with irradiation (between 1 and 10 μg/ml). The effect of the combined treatment was evaluated using both a proliferation test and a clonogenic assay for cell survival.

[5] = tested on: C15, Raji, HEP2, HTB33 tumor xenografts; assay: Tumor growth of virus-positive human xenografts in nude mice; assay type: in vivo
Experimental: as §3, §4, §7
The example presented herewith also relates to the combination of cidofovir with irradiation which was evaluated in vivo in various human viral-associated and also in non viral associated human cancers. The effect of cidofovir alone or combined with irradiation was studied in vivo in nude mice bearing 500-1000 mm3 tumor xenografts. The treatment consisted of 60 mg/kg daily of cidofovir intra-tumor injection for 5 days. In the combined group, irradiation (7 Gy) was performed on day 3 and 5 of cidofovir.

[6] = tested on: EBV+ and HPV+ cell lines (C15, Raji, HTB33, HEP2); assay: Clonogenic survival and proliferation test with irradiation, EBV+ and HPV+ cell lines; assay type: cell-based, human; conditions: cidofovir 1 to 10 μg/ml combined with irradiation, virus-related cells
Experimental: as §7, §8, §9

Bax = assay: Western blot of Bax in EBV+ cells; assay type: cell-based, human; conditions: Cidofovir 10 μg/ml, 48 hrs
Experimental: (§10) b, RAJI cells were cultured in the presence or absence of Ciodofovir (10 μg/ml). At 48 hrs, cells were harvested and analyzed for the expression of LMP1, bcl-2 and bax by Western-blot. For C15, at day 7 portions of tumors where lysed in RIPA buffer and protein extracts were immunoblotted with anti-LMP-1 antibody. The blot from b was stripped and re-probed with a monoclonal β-actin antibody.
as §2

[7] = tested on: cell lines derived from human cervical carcinoma; conditions: cited from earlier work
p53 [8] = assay: Immunoblot densitometry of p53 in HTB33 cells; assay type: cell-based, human; conditions: HTB33, Cidofovir 10 μg/ml, scored 1 without Cidofovir
Experimental: as §1, §2

LMP-1 [9] = assay: Western blot of LMP-1 in RAJI cells; assay type: cell-based, EBV
Experimental: b, RAJI cells were cultured in the presence or absence of Ciodofovir (10 μg/ml). […] For C15, at day 7 portions of tumors where lysed in RIPA buffer and protein extracts were immunoblotted with anti-LMP-1 antibody. The blot from b was stripped and re-probed with a monoclonal β-actin antibody.
as §2

Bcl2 = assay: Western blot of Bcl2 in EBV+ cells; assay type: cell-based, human; conditions: Cidofovir 10 μg/ml, 48 hrs
Experimental: as §10, §2

LMP-1 [10] = assay: Immunoblot of LMP-1 in C15 tumors; assay type: in vivo, EBV; conditions: intra-tumoral Cidofovir 50 mg/kg/day for 5 days, day 7
Experimental: as §5, §10
To prepare total proteins, cells lysates were extracted with lysis buffer 50 mM tris, pH 8, 120 mM NaCl, 0,1% SDS, and 0,5% NP-40. The protein concentration in the soluble fraction was determined by using a BioRad protein assay reagent. The viral oncoprotein LMP1 was detected by immunoblotting with a monoclonal anti-LMP1 antibody (clone CS1,CS2,CS3 & CS4 cocktail, RDI). […]

E7 = assay: Immunoblot of E7 in HPV+ HTB33 and HEP2 cells; assay type: cell-based; conditions: HPV+ cells exposed to Cidofovir 10 μg/ml
Experimental: as §1, §2

E6 [11] = assay: Immunoblot densitometry of E6 in HTB33 cells; assay type: cell-based, HPV; conditions: HTB33, Cidofovir 10 μg/ml, scored 1 without Cidofovir
Experimental: as §1, §2

C15 tumors = assay: Apoptosis assay (FACS, propidium iodide) in C15; assay type: in vivo, human; conditions: C15, Cidofovir combined with irradiation
Experimental: as §5, §6

HPV+ tumors = assay: Histological sections of HPV+ tumors; assay type: in vivo, mice; conditions: Cidofovir combined with irradiation, 2 HPV+ models (data not shown)
Excerpt: At 10 day after treatment, mice with HPV+ tumors from all groups were sacrified and tumors were excised and fixed in 10% neutral buffered formalin (NBF). The sections from each group were heamatoxylin and eosin (H&E)-stained for histological analysis.

E6 [12] = assay: Immunoblot densitometry of E6 in HEP2 cells; assay type: cell-based, HPV; conditions: HEP2, Cidofovir 10 μg/ml, scored 1 without Cidofovir
Experimental: as §1, §2

SMILES: Nc1ccn(C[C@@H](CO)OCP(=O)(O)O)c(=O)n1 [Cidofovir, (S)-1-[3-hydroxy-2-(phosphonomethoxy)propyl]cytosine]
- tumor growth ([1]; administered topically or systemically, nontoxic concentrations): no reduction of tumor growth
- tumor size ([1]; injected intratumorally, compared to placebo group): statistically significant reduction in tumor size
- P53 density score (p53 [2]; 3 days): 1.2
- P53 density score (p53 [2]; 6 days): 1.65
- effect on tumor cell growth in combination with VP16 (human cancer cells; VP16 5 μg/ml): synergic inhibitory effect
- effect on tumor cell growth in combination with cis platinum (human cancer cells; cis platinum 2.5 μg/ml): synergic inhibitory effect
- radiation-induced DNA repair at the chromosomal level (EBV and HPV cancer cells): no significant change
- tumor growth [3]: dramatically reduced the growth delay
- apoptosis (RAJI cells): marked increase
- radiosensitization (cell survival) [4]: increased cell kill
- radiosensitization (cell survival) ([4]; listed as cidofovir): markedly radiosensitized
- anti-tumor effect, sub-cutaneous versus intra-tumor administration ([5]; C15, sub-cutaneous 50 mg/kg cidofovir in combination with irradiation): anti-tumor effect of the same magnitude
- tumor growth delay ([5]; cidofovir alone, 60 mg/kg daily intra-tumor for 5 days): weak growth delay
- tumor growth ([5]; cidofovir intra-tumor 60 mg/kg daily 5 days + irradiation 7 Gy on day 3 and 5): dramatically reduced the growth delay; also recorded: major effect on tumor growth
- complete remission of tumors ([5]; combined treatment, 30 to 40 days after the treatment): nearly all the tumors were found to be in complete remission
- radiosensitization (decrease of SF2, surviving fraction at 2 Gy) [6]: increased cell kill
- radiosensitization (decrease of SF2, surviving fraction at 2 Gy) ([6]; listed as cidofovir): pronounced radiosensitization
- Bax expression (Bax): up-regulation
- cell proliferation [7]: inhibited in a concentration-dependent and in a time-dependent fashion
- P53 density score (p53 [8]; 3 days): 2.1
- P53 density score (p53 [8]; 6 days): 3.7
- LMP-1 expression (LMP-1 [9]; 24 hours after exposure (data not shown)): significant inhibition
- LMP-1 expression (LMP-1 [9]; RAJI cells, Cidofovir 10 μg/ml, 48 hrs): marked decrease
- Bcl2 expression (Bcl2): downregulation
- LMP-1 expression (LMP-1 [10]): marked decrease
- expression of the viral oncoprotein E7 (E7): decreased expression
- E6 band density score (E6 [11]; 3 days): 0.67
- E6 band density score (E6 [11]; 6 days): 0.32
- apoptosis (C15 tumors): marked increase
- tumor necrosis (histological sections) (HPV+ tumors): increased tumor necrosis
- E6 band density score (E6 [12]; 3 days): 0.7
- E6 band density score (E6 [12]; 6 days): 0.25
